Our source for the inhibition and IC50 values is patent publication US5225528A, “Cyclic hexapeptide oxytocin antagonists” (priority 1990, dated 1993).

One test has as its target T1, uterine OT receptors (Rattus norvegicus, UniProt P70536).
T1 construct: from tissue; host or cells: uterus of DES-treated rats, crude membranes
T1 sequence (P70536 1-388): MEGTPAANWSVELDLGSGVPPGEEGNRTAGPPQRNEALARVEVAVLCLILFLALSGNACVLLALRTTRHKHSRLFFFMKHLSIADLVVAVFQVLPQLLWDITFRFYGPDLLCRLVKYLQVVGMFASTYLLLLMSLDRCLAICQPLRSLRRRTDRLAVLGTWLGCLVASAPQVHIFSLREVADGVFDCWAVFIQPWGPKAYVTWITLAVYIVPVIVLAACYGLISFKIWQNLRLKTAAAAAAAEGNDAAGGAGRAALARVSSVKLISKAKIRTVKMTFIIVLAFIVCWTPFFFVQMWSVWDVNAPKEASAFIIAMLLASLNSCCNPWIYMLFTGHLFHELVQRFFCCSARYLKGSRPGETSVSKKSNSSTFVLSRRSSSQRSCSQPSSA
The test can be described thus: [^3 H]OT binding to uterine OT receptors, crude membrane preparation of uteri from DES-treated rats. Conditions: for inhibition at 1 µM / inhibition at 0.1 µM / inhibition at 0.01 µM: 1 h, read-out: [^3 H]OT: percent inhibition of radioligand at the given concentration; for inhibition at 1 µM: @ 1,000 (nM); for IC50: rat uterus membranes, 1 nM [^3 H]OT, read-out: Receptor Binding Results IC50 (nM) [^3 H]OT; for inhibition at 0.1 µM: @ 100 (nM); for inhibition at 0.01 µM: @ 10 (nM). The protocol:
Competition studies were conducted at equilibrium (60 minutes; 22° C.) using 1 nM [^3 H]OT in the following assay buffer: 50 mM Tris-HCl, 5 mM MgCl2, and 0.1% BSA, pH 7.4.

In the next test the target is T2, AVP-V1 sites (Rattus norvegicus, UniProt P30560).
T2 construct: crude membrane preparation of male rat liver (AVP-V1 sites); from tissue; host or cells: male rat liver, crude membranes
The test is described as follows: [^3 H]AVP binding to crude membrane preparation of male rat liver (AVP-V1 sites). As to the method: (§1) Nonspecific binding (5-10% of the total binding) was determined using 10 μM unlabeled AVP, and the binding reaction was terminated by filtration as described above for the [^3 H]OT binding assay.

The target in another test is T3, AVP-V2 sites (Rattus norvegicus, UniProt Q00788).
T3 construct: male rat liver (AVP-V1 sites) or kidney medulla (AVP-V2 sites); from tissue; host or cells: male rat kidney medulla, crude membranes
The test is described as follows: [^3 H]AVP binding to crude membrane preparation of male rat kidney medulla (AVP-V2 sites). Conditions: for inhibition at 1 µM: 0.5 h, @ 1,000 (nM), read-out: [^3 H]-AVP-V2: percent inhibition of radioligand at the given concentration. As to the method:
as §1

[1] abbreviates: Receptor Binding Results IC50 (nM) [^3 H]-AVP-V1.
Where [2] appears, read: rat kidney medulla membranes, 2 nM [^3 H]AVP, read-out: Receptor Binding Results IC50 (nM) [^3 H]-AVP-V2.
[3] abbreviates: read-out: Receptor Binding Results IC50 (nM) [^3 H]-AVP-V1.
[4] abbreviates: read-out: Receptor Binding Results IC50 (nM) [^3 H]-AVP-V2.

Like-named read-outs stand apart in the source and are kept apart here. Numbered stars: 1 amine (or outer) side, 2 acyl side, 3 side chain; on linkers, the order of the positions; unused ones are H or OH. Square brackets hold non-standard residues; d marks the D form. Peptide text beside a SMILES is read from it. * marks the point of attachment. dPip(4-aza,4-Cbz) = O=C(O)[C@H]1CN(C(=O)OCc2ccccc2)CCN1; X2 = O=C(OCc1ccccc1)N1CCN([*:1])[C@H](C(=O)[*:2])C1; X5 = CC(C)(C)OC(=O)CN1CCN([*:1])[C@H](C(=O)[*:2])C1; d2Nal = N[C@H](Cc1ccc2ccccc2c1)C(=O)O; dNMehPhe = CN[C@H](CCc1ccccc1)C(=O)O; d(hPhe) = N[C@H](CCc1ccccc1)C(=O)O; NMeI = CC[C@H](C)[C@H](NC)C(=O)O; Pip(4-aza) = O=C(O)[C@@H]1CNCCN1; dNMeF = CN[C@H](Cc1ccccc1)C(=O)O; X7 = C[N+]12CCC(CC1)C(C(=O)*)C2; Pip = O=C(O)[C@@H]1CCCCN1; dPip = O=C(O)[C@H]1CCCCN1; Boc = CC(C)(C)OC(=O)*; Bn = c1ccc(C*)cc1; tBu = CC(C)(C)*

T3 sequence (Q00788 whole entry): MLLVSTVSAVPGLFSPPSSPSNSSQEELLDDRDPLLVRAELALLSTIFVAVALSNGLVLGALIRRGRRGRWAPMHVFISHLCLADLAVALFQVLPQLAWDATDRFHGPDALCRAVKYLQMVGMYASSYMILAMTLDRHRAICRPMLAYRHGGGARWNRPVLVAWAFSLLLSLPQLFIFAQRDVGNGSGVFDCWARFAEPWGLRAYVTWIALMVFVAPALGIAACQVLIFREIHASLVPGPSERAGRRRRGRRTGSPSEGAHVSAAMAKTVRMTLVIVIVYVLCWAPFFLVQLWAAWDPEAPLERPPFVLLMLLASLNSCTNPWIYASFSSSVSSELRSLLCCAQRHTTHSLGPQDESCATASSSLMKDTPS
T2 sequence (P30560 whole entry): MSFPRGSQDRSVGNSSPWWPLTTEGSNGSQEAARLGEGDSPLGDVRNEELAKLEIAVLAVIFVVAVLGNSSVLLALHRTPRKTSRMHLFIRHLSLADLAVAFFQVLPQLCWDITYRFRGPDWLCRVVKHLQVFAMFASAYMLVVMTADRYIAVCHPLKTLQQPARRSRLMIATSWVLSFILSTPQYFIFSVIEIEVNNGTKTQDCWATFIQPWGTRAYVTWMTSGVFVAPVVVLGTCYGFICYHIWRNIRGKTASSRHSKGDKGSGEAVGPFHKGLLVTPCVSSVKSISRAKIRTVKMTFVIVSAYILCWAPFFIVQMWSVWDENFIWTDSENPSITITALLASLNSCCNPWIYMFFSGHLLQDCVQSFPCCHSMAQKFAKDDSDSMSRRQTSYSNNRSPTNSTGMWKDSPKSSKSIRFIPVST

The term IC50 denotes the concentration that inhibits the measured activity by half. Consider `CC[C@H](C)[C@@H]1NC(=O)[C@@H](Cc2ccc(OCc3ccccc3)cc2)NC(=O)[C@@H]2CCCN2C(=O)[C@@H](Cc2ccccc2)N(C)C(=O)[C@H](CCCCNC(=O)OC(C)(C)C)NC(=O)[C@H]2CCCCN2C1=O` [Example 142, C-[D-(O-Benzyl)-tyrosinyl-L-isoleucyl-D-pipecolyl-L-(N-t-butyloxycarbonyl)lysyl-D-(N-methyl)phenylalanyl-L-prolyl]] (cyclo(I[dPip]K(Boc)[dNMeF]P[dY](Bn))), for which the inhibition at 1 µM at uterine OT receptors was 12%. Also, the IC50 on AVP-V1 sites (setting [1]) and at AVP-V2 sites (setting [2]) was over 10000 nM each time.
`CC[C@H](C)[C@@H]1NC(=O)[C@@H](Cc2ccc(OC(C)(C)C)cc2)NC(=O)[C@@H]2CCCN2C(=O)[C@@H](Cc2ccccc2)N(C)C(=O)[C@H](CCCCNC(=O)OC(C)(C)C)NC(=O)[C@H]2CCCCN2C1=O` [Example 144, C-[D-(O-t-Butyl)Tyrosiniyl-L-isoleucyl-D-pipecolyl-L(N-t-butyloxycarbonyl)lysyl-D-(N-methyl)phenylalanyl-L-prolyl]] (cyclo(I[dPip]K(Boc)[dNMeF]P[dY](tBu))): the inhibition at 1 µM at uterine OT receptors was found to be 67%. Also, the IC50 was over 10000 nM at AVP-V1 sites (setting [1]) and 10000 nM on AVP-V2 sites (setting [2]).
On to `CC[C@H](C)[C@@H]1NC(=O)[C@@H](Cc2ccc(OCc3ccccc3)cc2)NC(=O)[C@@H]2CCCN2C(=O)[C@@H](Cc2ccccc2)N(C)C(=O)[C@H](CCCCN)NC(=O)[C@H]2CCCCN2C1=O` [Example 145, C-[D-(O-Benzyl)Tyrosyl-L-isoleucyl-D-pipecolyl-L-lysyl-D-(N-methyl)phenylalanyl-L-prolyl]] (cyclo(I[dPip]K[dNMeF]P[dY](Bn))), for which, on uterine OT receptors, the inhibition at 1 µM is 9%. Further, the 50% inhibitory concentration (IC50) on AVP-V1 sites (setting [1]) is over 10000 nM; on AVP-V2 sites (setting [2]), 10000 nM.
Take `CC[C@H](C)[C@@H]1NC(=O)[C@@H](Cc2ccc(O)cc2)NC(=O)[C@@H]2CCCN2C(=O)[C@@H](Cc2ccccc2)N(C)C(=O)[C@H](CCCCN)NC(=O)[C@H]2CCCCN2C1=O` [Example 147, C-[D-Tyrosyl-L-isoleucyl-D-pipecolyl-L-lysyl-D-(N-methyl)phenylalanyl-L-prolyl]] (cyclo(I[dPip]K[dNMeF]P[dY])): the values for the half-inhibitory concentration (IC50) at uterine OT receptors, on AVP-V1 sites (setting [1]) and on AVP-V2 sites (setting [2]) were 860 nM, 10000 nM and 10000 nM, respectively.
For the compound `CC[C@H](C)[C@@H]1NC(=O)[C@@H](Cc2ccc(O)cc2)NC(=O)[C@@H]2CCCN2C(=O)[C@@H](Cc2ccccc2)N(C)C(=O)[C@H](CCCCNC(=O)OC(C)(C)C)NC(=O)[C@H]2CCCCN2C1=O` [Example 148, C-[D-Tyrosyl-L-isoleucyl-D-pipecolyl-L-(N-t-butyloxycarbonyl)lysyl-D-(N-methyl)phenylalanyl)-L-prolyl] (cyclo(I[dPip]K(Boc)[dNMeF]P[dY])), the inhibition at 1 µM on uterine OT receptors was found to be 50%. In addition, the IC50 on AVP-V1 sites (setting [1]) and on AVP-V2 sites (setting [2]) was over 10000 nM throughout.
As to `CC[C@H](C)[C@@H]1NC(=O)[C@@H](Cc2ccc(OC)cc2)NC(=O)[C@@H]2CCCN2C(=O)[C@@H](Cc2ccccc2)N(C)C(=O)[C@H](CCCCNC(=O)OC(C)(C)C)NC(=O)[C@H]2CCCCN2C1=O` [Example 149, c-[D-(O-Methyl)Tyrosyl-L-isoleucyl-D-pipecolyl-L-(N-t-butyloxycarbonyl)lysyl-D-(N-methyl)phenylalanyl-L-prolyl]] (cyclo(I[dPip]K(Boc)[dNMeF]P[dY](Me))), the inhibition at 0.1 µM at uterine OT receptors was determined as 53%. For the same compound, the IC50 is over 10000 nM at AVP-V1 sites (setting [1]) and 10000 nM at AVP-V2 sites (setting [2]).
For `CC[C@H](C)[C@@H]1NC(=O)[C@@H](Cc2ccc(OC)cc2)NC(=O)[C@@H]2CCCN2C(=O)[C@@H](Cc2ccccc2)N(C)C(=O)[C@H](CCCCN)NC(=O)[C@H]2CCCCN2C1=O` [Example 150, c-[D-(O-Methyl)Tyrosyl-L-isoleucyl-D-pipecolyl-L-lysyl-D-(N-methyl)phenylalanyl-L-prolyl]] (cyclo(I[dPip]K[dNMeF]P[dY](Me))), the concentration for half-maximal inhibition (IC50) at uterine OT receptors worked out at 44 nM; at AVP-V1 sites (setting [1]) it was 10000 nM. Further, the inhibition at 1 µM on AVP-V2 sites turned out to be 62%.
For the compound `CC[C@H](C)[C@@H]1NC(=O)[C@@H](Cc2ccc3ccccc3c2)NC(=O)[C@@H]2CCCN2C(=O)[C@@H](Cc2ccccc2)N(C)C(=O)[C@H](CCCCNC(=O)C2C[N+]3(C)CCC2CC3)NC(=O)[C@H]2CCCCN2C1=O` (stereo partly drawn) [Example 151, c-[D-2-Napthylalanyl-L-isoleucyl-D-pipecolyl-L-[N-(1-methyl-quinuclidinium-3-yl-carbonyl)]lysyl-D-(N-methyl)phenylalanyl-L-prolyl]] (cyclo(I[dPip]K(X7)[dNMeF]P[d2Nal])), the concentration for half-maximal inhibition (IC50) at uterine OT receptors was found to be 10 nM; at AVP-V1 sites (setting [3]), 390 nM; on AVP-V2 sites, 82 nM.
Turning to `CC[C@H](C)[C@@H]1NC(=O)[C@@H](Cc2ccc3ccccc3c2)NC(=O)[C@@H]2CCCN2C(=O)[C@@H](Cc2c[nH]cn2)NC(=O)[C@@H]2CN(C(=O)OCc3ccccc3)CCN2C(=O)[C@H]2CCCCN2C1=O` [Example 158, c-[D-2-Naphthylalanyl-L-isoleucyl-D-pipecolyl-L-piperazin-2-yl-(4-carbobenzyloxy)-D-histidyl-L-prolyl]] (cyclo(I[dPip][X2][dH]P[d2Nal])), the inhibition at 0.01 µM on uterine OT receptors stood at 60%. At AVP-V1 sites (setting [1]), this compound registered a 50% inhibitory concentration (IC50) of over 1000 nM. Further, at AVP-V2 sites, the inhibition at 1 µM worked out at 68%.
`CC[C@H](C)[C@@H]1NC(=O)[C@@H](Cc2ccc3ccccc3c2)NC(=O)[C@@H]2CCCN2C(=O)[C@@H](Cc2c[nH]cn2)NC(=O)[C@@H]2CNCCN2C(=O)[C@H]2CCCCN2C1=O` [Example 159, c-[D-2-Naphthylalanyl-L-isoleucyl-D-pipecolyl-L-piperazin-2-yl-D-histidyl-L-prolyl]] (cyclo(I[dPip][Pip(4-aza)][dH]P[d2Nal])): the IC50 was 1.8 nM on uterine OT receptors, 4650 nM at AVP-V1 sites (setting [3]) and 690 nM at AVP-V2 sites (setting [4]).
For `CC[C@H](C)[C@@H]1NC(=O)[C@@H](Cc2ccc3ccccc3c2)NC(=O)[C@@H]2CCCN2C(=O)[C@@H](Cc2c[nH]cn2)NC(=O)[C@H]2CN(C(=O)OCc3ccccc3)CCN2C(=O)[C@H]2CCCCN2C1=O` [Example 160, c-[D-2-Naphthylalanyl-L-isoleucyl-D-pipecolyl-D-piperazin-2-yl-(4-carbobenzyloxy)-D-hystidyl-L-prolyl]] (cyclo(I[dPip][dPip(4-aza,4-Cbz)][dH]P[d2Nal])), the inhibition at 0.01 µM on uterine OT receptors worked out at 53%. The IC50 on AVP-V1 sites (setting [1]) is over 1000 nM. Moreover, at AVP-V2 sites, the inhibition at 1 µM came out at 66%.
On to `CC[C@H](C)[C@@H]1NC(=O)[C@@H](Cc2c[nH]c3ccccc23)NC(=O)[C@@H]2CCCN2C(=O)[C@@H](Cc2c[nH]c3ccccc23)NC(=O)[C@@H]2CN(CC(=O)OC(C)(C)C)CCN2C(=O)[C@H]2CCCCN2C1=O` [Example 162, c-[D-Tryptophanyl-L-isoleucinyl-D-pipecolyl-L-piperazin-2-yl(4-t-butylacetyl)-D-tryptophanyl-L-prolyl]] (cyclo([dW]I[dPip][X5][dW]P)), for which the inhibition at 0.1 µM on uterine OT receptors turned out to be 54%. The IC50 on AVP-V1 sites (setting [1]) is over 10000 nM; on AVP-V2 sites (setting [2]) it was 10000 nM.
Take `CC[C@H](C)[C@@H]1NC(=O)[C@@H](Cc2ccccc2)NC(=O)[C@@H]2CCCN2C(=O)[C@@H](Cc2ccccc2)NC(=O)[C@@H]2CNCCN2C(=O)[C@H]2CCCN2C1=O` [Example 164, c-[D-Phenylalanyl-L-isoleucinyl-D-prolyl-L-piperazin-2-yl-D-phenylalanyl-L-prolyl]] (cyclo(I[dP][Pip(4-aza)][dF]P[dF])): the values for the IC50 at uterine OT receptors, at AVP-V1 sites (setting [1]) and on AVP-V2 sites (setting [2]) were 1300 nM, 10000 nM and over 10000 nM, respectively.
Take `CC[C@H](C)[C@@H]1NC(=O)[C@@H](CCc2ccccc2)NC(=O)[C@@H]2CCCN2C(=O)[C@@H](Cc2ccccc2)N(C)C(=O)[C@@H]2CCCCN2C(=O)[C@H]2CCCCN2C1=O` [Example 165, c-[D-Homophenylalanyl-L-isoleucyl-D-pipecolyl-L-pipecolyl-N-Me-D-phenylalanyl-L-prolyl]] (cyclo(I[dPip][Pip][dNMeF]P[d(hPhe)])): the IC50 at uterine OT receptors turned out to be 150 nM; at AVP-V1 sites (setting [3]), 6600 nM; at AVP-V2 sites (setting [4]) it was 2600 nM.
For `CC[C@H](C)[C@H]1C(=O)N2CCCC[C@@H]2C(=O)N2CCCC[C@H]2C(=O)N(C)[C@H](Cc2ccccc2)C(=O)N2CCC[C@H]2C(=O)N(C)[C@H](CCc2ccccc2)C(=O)N1C` [Example 166] (cyclo([NMeI][dPip][Pip][dNMeF]P[dNMehPhe])), the IC50 is 23000 nM at uterine OT receptors, over 3000 nM on AVP-V1 sites (setting [3]) and over 3000 nM at AVP-V2 sites (setting [4]).
